{"source": "patent US20250352524A1", "about": "“PREVENTION OF METASTATIC OUTGROWTH USING TEAD INHIBITORS” (Georgetown University, priority 2024, published 2025)", "system": "naïve C57/BL6 mice", "assay": "Tumor naïve C57/BL6 mice treated for two weeks, lung immune microenvironment", "type": "in vivo", "protocol": "To determine iTEAD effect on lung immune microenvironment at steady state, naïve C57/BL6 mice were treated with iTEAD. […] In the absence of cancer cells in these naïve mice, no change in CD8+ T-cells was observed between treatment groups. […] On the cancer cell front, TEAD inhibition had no effect on proliferation yet reduced migration and 3D spheroid collective invasion of breast cancer cells in vitro.\nTo investigate how TEAD inhibition influences the immune microenvironment in the normal lung, C57BL/6 mice were treated with 30 mg/kg of VT107 or vehicle control via oral gavage for 2 weeks. Lung, spleen and blood tissues were harvested for immune cell analysis and RNA-sequencing (FIG. 9, Panel G). […] RNA-seq data was analyzed by Cibersortx (Chen et al., 2018) to deconvolute the abundance of immune cell types in the lung tissue using single-cell RNA-seq datasets.\nDue to the shifts in immune signaling observed in the lung tissue upon TEAD inhibition (FIG. 9), immune cell populations were first analyzed by flow cytometry in the lungs and spleens of tumor naïve mice. Consistent with the Cibersort analysis of RNA-seq data, there was a decrease in the monocytes population and an increase in the tissue-resident alveolar macrophages (AM) (FIG. 10, Panel A). […] Next, it was sought to determine the specific effects of iTEAD treatment on lung resident versus bone-marrow derived macrophages, as the dynamics of these cell populations are crucial for the establishment of the metastatic niche (Ries et al., 2014; Qian et al., 2011). Macrophages were retrieved from the lungs by isolating F4/80+ cells, a specific marker for murine macrophages, by FACS (fluorescence-activated cell sorting) as well as bone marrow-derived macrophages from the femurs of naïve C57BL/6 mice that were then differentiated in vitro using macrophage colony stimulating factor (M-CSF). Macrophages were treated with 1 μM of VT107 for 24 hours before the conditioned media was collected and analyzed on a cytokine array. […] There was no change in the level of the other cytokines detected (FIG. 10, Panel B).\nSingle cell suspensions were washed 2× with PBS. Cells were then stained with Zombie NIR Fixable Viability Kit (Biolegend, 423106) or Zombie Aqua Fixable Viability Kit (Biolegend, 423102) for 20 minutes at room temperature, to identify dead cells. Next, cells were washed with FACS buffer (1×PBS+2% FBS) and incubated with conjugated antibodies binding to cell surface proteins, at 4 °C for 30 minutes. A combination of the following antibodies were used: anti-CD45-Spark Blue 550 (Biolegend, 103166), anti-CD3-PercP/Cy5.5 (Biolegend, 100217), anti-CD4-Pacific Blue (Biolegend, 116007), anti-CD8-BV785 (Biolegend, 100750), anti-CD25-BV650 (Biolegend, 102038), anti-CD45-AF700 (Biolegend, 103128), anti-CD45R (B220) (Biolegend, 563103), anti-SiglecF-APC (Miltenyi Biotec, 130-102-241), anti-CD11b-PE/Dazzle (Biolegend, 108745), anti-CD11c-FITC (Biolegend, 117306), anti-F480-PE/Cy7 (Biolegend, 123114), anti-Ly6G-BV785 (Biolegend, 127645), anti-Ly6C-BV570 (Biolegend, 128030), anti-CD206-AF700 (Biolegend, 141734), and anti-CD86-AF488 (Biolegend, 105018). Cells were fixed and permeabilized using the BD Cytofix/Cytoperm Fixation/Permeabilization Kit (BD Biosciences, #554714) prior to incubation with anti-Foxp3-AF647 (Biolegend, 126407), anti-Gata3-PE (Biolegend, 653803), anti-RORy t-BV421 (Biolegend, 562894), and anti-T-bet-BV711 (BD Biosciences, 4B10). After staining, cells were washed 2× and subjected to flow cytometry analysis using the BD FACSymphony Δ3 flow cytometer analyzer. Results were analyzed using FCS Express 7 Research (De Novo Software).\nThe total RNA from tissue or cell lines was extracted using RNeasy Mini Kit (Qiagen, #74104) according to the manufacturer's instructions. Total RNA integrity was assessed with the Agilent 2100 Bioanalyzer. The library preparation and next-generation sequencing (NGS) were performed at Novogene Corporation Inc. (Sacramento, CA, USA). […]", "key": {"[1]": {"settings": "30 mg/kg oral gavage 2 weeks, flow cytometry"}}, "note": "“Also recorded” adds a separate entry of the source."}
{"substance": "VT107", "values": [{"measurement": "alveolar macrophages in the lungs", "setting": "[1]", "result": "increase"}, {"measurement": "infiltrating monocytes/macrophages in the lungs", "setting": "[1]", "result": "decrease"}, {"measurement": "alveolar macrophages in the lungs", "setting": "30 mg/kg oral gavage 2 weeks, flow cytometry, listed as iTEAD", "result": "robust increase; also recorded: shift"}, {"measurement": "leukocytes fraction", "setting": "Cibersortx of RNA-seq", "result": "slight increase"}, {"measurement": "monocyte fraction in lung tissue", "setting": "Cibersortx of RNA-seq", "result": "reduced"}, {"measurement": "myeloid cells' fraction including tissue resident macrophages", "setting": "Cibersortx of RNA-seq", "result": "expanded"}, {"measurement": "IL12 signaling pathway in lung", "setting": "Ingenuity pathway analysis", "result": "increase"}, {"measurement": "inflammation (cytokine storm, S100 family, wound healing and fibrosis signaling pathways) in lung", "setting": "Ingenuity pathway analysis", "result": "overall reduction"}, {"measurement": "lung gene expression, downregulated compared to upregulated genes", "setting": "RNA-sequencing", "result": "significantly higher number of downregulated genes"}, {"measurement": "spleen gene expression", "setting": "RNA-sequencing", "result": "minimal changes"}, {"measurement": "CD3+ cells in tumor naïve lungs", "setting": "flow cytometry", "result": "increase"}, {"measurement": "CD4+ or CD8+ T-cell populations in tumor naïve lungs", "setting": "flow cytometry", "result": "not specifically"}, {"measurement": "total macrophages, dendritic cells, eosinophils or neutrophils", "setting": "flow cytometry, analyzed tissues", "result": "No significant change"}, {"measurement": "alveolar macrophages and infiltrating monocytes/macrophages in spleen or blood", "setting": "flow cytometry, listed as iTEAD", "result": "no change"}, {"measurement": "CD8+ T-cells", "setting": "naïve mice, between treatment groups", "result": "no change"}]}
